Experimental data from ChEMBL document CHEMBL1139929, “Penicillin-bound polyacrylate nanoparticles: restoring the activity of beta-lactam antibiotics against MRSA” (2007).
≈ marks a conversion by molar mass, not a printed value.

Tests used:
Staphylococcus aureus [1] = assay: Antibacterial activity against Staphylococcus aureus ATCC 25923 after 24 hrs by broth dilution assay; assay type: functional; conditions: ATCC 25923, 24 h
Staphylococcus aureus [2] = assay: Antibacterial activity against methicillin-resistant Staphylococcus aureus ATCC 43300 after 24 hrs by broth dilution assay; assay type: functional; conditions: ATCC 43300, 24 h

## CC1(C)S[C@@H]2[C@H](NC(=O)Cc3ccccc3)C(=O)N2[C@H]1C(=O)O [PENICILLIN G]
Staphylococcus aureus [1]
  MIC: 0.012 µg/mL (≈ 0.0359 µM)
Staphylococcus aureus [2]
  MIC: 16 µg/mL (≈ 47.8 µM)
